Measurements as given in PMC4033659 (Journal of Medicinal Chemistry, 2014).

Experiment: In vivo PK in rats after ip administration
Conditions: rat, ip 10 mg/kg, at Tmax 30 min

SMILES	plasma (maximum concentration) [µM]	brain (maximum concentration) [µM]
COc1ccc(C(=O)O)cc1OCCCCOc1ccc(C(=O)CC(C)(C)C)c(O)c1C [Compound 72, 3-(4-(4-(3,3-Dimethylbutanoyl)-3-hydroxy-2-methylphenoxy)butoxy)-4-methoxybenzoic Acid]	2.44 ± 2.19	
Cc1c(OCCCCOc2ccc(F)c(C(=O)O)c2)ccc(C(=O)C(C)C)c1O [Compound 65, 2-Fluoro-5-(4-(3-hydroxy-4-isobutyryl-2-methylphenoxy)butoxy)benzoic Acid]	5.44 ± 2.92	
CCCC(=O)c1ccc(OCCCCOc2cc(C(=O)O)ccc2OC)c(C)c1O [Compound 68, 3-(4-(4-Butyryl-3-hydroxy-2-methylphenoxy)butoxy)-4-methoxybenzoic Acid]	2.18 ± 0.58	
Cc1c(OCCCCOc2ccc(F)c(C(=O)O)c2)ccc(C(=O)CC(C)(C)C)c1O [Compound 75, 5-(4-(4-(3,3-Dimethylbutanoyl)-3-hydroxy-2-methylphenoxy)butoxy)-2-fluorobenzoic Acid]	6.52 ± 0.54	0.22 ± 0.04
COc1cc(C(=O)O)ccc1OCCCCOc1ccc(C(=O)CC(C)C)c(O)c1C [Compound 44, 4-{4-[3-Hydroxy-2-methyl-4-(3-methylbutanoyl)phenoxy]butoxy}-3-methoxybenzoic Acid]	10.57 ± 2.52	0.23 ± 0.10
